We go through 26 compounds from ChEMBL document CHEMBL2407081, “Discovery of potent, isoform-selective inhibitors of histone deacetylase containing chiral heterocyclic capping groups and a N-(2-aminophenyl)benzamide binding unit” (J Med Chem, 2013).

The structures appear in SMILES notation. A value given as a limit tells only on which side of the number the result lay.

The target in one test is Histone deacetylase 2 (Homo sapiens, UniProt Q92769). Put plainly: Inhibition of recombinant His-tagged HDAC2 (1 to 488) (unknown origin) using MAL as substrate incubated for 3 hrs prior to substrate addition measured after 60 mins by fluorescence plate reader analysis.
Sequence of Histone deacetylase 2 (Q92769 whole entry): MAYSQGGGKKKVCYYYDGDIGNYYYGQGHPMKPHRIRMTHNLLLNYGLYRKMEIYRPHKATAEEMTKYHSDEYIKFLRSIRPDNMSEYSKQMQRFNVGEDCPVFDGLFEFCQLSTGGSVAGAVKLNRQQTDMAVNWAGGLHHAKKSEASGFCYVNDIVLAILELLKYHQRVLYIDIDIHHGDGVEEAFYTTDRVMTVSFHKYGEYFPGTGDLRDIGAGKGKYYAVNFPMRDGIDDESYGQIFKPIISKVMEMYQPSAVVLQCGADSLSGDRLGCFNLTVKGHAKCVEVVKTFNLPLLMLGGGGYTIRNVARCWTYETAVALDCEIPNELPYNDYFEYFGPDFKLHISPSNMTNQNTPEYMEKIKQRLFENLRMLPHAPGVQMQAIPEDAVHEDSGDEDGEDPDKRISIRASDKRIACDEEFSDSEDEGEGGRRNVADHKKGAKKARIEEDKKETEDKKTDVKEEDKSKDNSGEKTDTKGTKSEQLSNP
In test [1] the target is T1, Protein deacetylase HDAC6 (Homo sapiens, UniProt Q9UBN7).
T1 sequence (Q9UBN7 whole entry): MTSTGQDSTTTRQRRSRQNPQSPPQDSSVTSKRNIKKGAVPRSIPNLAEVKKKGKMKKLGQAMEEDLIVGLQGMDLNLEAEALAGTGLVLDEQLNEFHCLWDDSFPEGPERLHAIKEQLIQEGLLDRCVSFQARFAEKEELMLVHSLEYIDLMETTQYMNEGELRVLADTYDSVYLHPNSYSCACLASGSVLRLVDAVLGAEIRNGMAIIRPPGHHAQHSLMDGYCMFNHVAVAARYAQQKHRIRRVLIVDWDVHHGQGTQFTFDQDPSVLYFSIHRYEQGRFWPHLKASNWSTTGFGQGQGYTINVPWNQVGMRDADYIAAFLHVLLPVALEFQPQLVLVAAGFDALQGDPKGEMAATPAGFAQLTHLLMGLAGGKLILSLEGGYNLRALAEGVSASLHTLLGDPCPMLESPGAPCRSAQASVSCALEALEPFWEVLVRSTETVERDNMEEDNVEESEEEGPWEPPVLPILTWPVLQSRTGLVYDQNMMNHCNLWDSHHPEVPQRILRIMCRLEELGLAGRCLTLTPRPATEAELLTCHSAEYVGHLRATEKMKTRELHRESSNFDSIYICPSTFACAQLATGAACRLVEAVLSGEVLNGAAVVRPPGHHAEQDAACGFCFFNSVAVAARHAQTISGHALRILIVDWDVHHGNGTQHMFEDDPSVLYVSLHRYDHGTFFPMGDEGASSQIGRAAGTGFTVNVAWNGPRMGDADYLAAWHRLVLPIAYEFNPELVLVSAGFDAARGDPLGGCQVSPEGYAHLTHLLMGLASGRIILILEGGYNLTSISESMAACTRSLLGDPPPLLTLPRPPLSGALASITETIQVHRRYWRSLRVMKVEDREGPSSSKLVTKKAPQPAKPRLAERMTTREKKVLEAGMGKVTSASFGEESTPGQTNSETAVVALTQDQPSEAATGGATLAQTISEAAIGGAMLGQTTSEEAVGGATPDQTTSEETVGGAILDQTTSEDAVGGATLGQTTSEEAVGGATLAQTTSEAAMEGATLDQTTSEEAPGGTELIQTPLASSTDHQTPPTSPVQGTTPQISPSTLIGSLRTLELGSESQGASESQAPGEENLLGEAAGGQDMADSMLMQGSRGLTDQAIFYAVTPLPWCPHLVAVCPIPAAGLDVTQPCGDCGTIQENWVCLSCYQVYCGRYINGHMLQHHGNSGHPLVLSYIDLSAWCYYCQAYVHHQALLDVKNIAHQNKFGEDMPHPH
The test is described as follows: Inhibition of recombinant His-tagged HDAC6 (unknown origin) using Fluor-de-Lys SIRT1 as substrate incubated for 3 hrs prior to substrate addition measured after 60 mins by fluorescence plate reader analysis.

Test [2] has as its target Histone deacetylase 3/NCoR1 (Homo sapiens, UniProt O15379). Put plainly: Inhibition of recombinant HDAC3-NCoR1 (unknown origin) using MAL as substrate incubated for 3 hrs prior to substrate addition measured after 60 mins by fluorescence plate reader analysis. The class given is protein-complex assay.
For the next test, the target named is T2, Histone deacetylase 8 (Homo sapiens, UniProt Q9BY41).
T2 sequence (Q9BY41 whole entry): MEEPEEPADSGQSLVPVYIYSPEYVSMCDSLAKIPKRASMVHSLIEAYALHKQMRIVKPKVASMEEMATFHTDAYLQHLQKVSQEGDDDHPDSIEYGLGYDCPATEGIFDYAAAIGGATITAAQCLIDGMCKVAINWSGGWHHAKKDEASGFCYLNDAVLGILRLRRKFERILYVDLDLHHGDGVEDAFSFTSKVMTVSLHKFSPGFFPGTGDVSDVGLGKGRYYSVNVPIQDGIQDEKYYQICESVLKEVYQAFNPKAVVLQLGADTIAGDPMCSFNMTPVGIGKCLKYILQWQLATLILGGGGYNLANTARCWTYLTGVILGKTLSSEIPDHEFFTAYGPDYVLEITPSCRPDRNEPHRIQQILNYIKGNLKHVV
Put plainly: Inhibition of recombinant HDAC8 (unknown origin) expressed in Escherichia coli BL21 using MAL as substrate incubated for 15 mins prior to substrate addition measured after 60 mins by fluorescence plate reader analysis.

For a further test, the system named is DU-145. Put plainly: Cytotoxicity against human DU145 cells assessed as growth inhibition by measuring cellular ATP level after 72 hrs by cell-titer glo assay. To be noted: DU-145, 72 h. The format is functional, cell-based.
The next test has as its system HCT-116. The test is described as follows: Cytotoxicity against human HCT116 cells assessed as growth inhibition by measuring cellular ATP level after 72 hrs by cell-titer glo assay. To be noted: HCT-116, 72 h. The format is functional, cell-based.
The subject of the next test is MCF7. The test is described as follows: Cytotoxicity against human MCF7 cells assessed as growth inhibition by measuring cellular ATP level after 72 hrs by cell-titer glo assay. The class given is functional, cell-based. To be noted: MCF7, 72 h.
In another test the test system is A549. The test is described as follows: Cytotoxicity against human A549 cells assessed as growth inhibition by measuring cellular ATP level after 72 hrs by cell-titer glo assay. The format is functional, cell-based. To be noted: A549, 72 h.
In the next test the target is Histone deacetylase 1 (Homo sapiens, UniProt Q13547). Put plainly: Inhibition of recombinant C-terminal FLAG-tagged HDAC1 (unknown origin) expressed in Escherichia coli BL21 using MAL as substrate incubated for 1 hr prior to substrate addition measured after 60 mins by fluorescence plate reader analysis.
Sequence of Histone deacetylase 1 (Q13547 whole entry): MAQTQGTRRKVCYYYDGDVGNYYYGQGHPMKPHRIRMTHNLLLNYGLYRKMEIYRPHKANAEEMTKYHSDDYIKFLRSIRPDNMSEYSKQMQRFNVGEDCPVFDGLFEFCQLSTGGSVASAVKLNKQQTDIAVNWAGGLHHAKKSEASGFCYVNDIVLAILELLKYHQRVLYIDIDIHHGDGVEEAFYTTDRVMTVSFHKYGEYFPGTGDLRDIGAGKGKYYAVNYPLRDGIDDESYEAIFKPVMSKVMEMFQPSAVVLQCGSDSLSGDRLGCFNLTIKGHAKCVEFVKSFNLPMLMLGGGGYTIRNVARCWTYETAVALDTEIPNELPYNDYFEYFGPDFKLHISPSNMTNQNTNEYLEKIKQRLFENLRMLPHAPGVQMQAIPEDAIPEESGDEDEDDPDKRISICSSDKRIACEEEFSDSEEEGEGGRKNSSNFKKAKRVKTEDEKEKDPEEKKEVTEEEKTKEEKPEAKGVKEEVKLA

Sequence of Histone deacetylase 3/NCoR1 (O15379 whole entry): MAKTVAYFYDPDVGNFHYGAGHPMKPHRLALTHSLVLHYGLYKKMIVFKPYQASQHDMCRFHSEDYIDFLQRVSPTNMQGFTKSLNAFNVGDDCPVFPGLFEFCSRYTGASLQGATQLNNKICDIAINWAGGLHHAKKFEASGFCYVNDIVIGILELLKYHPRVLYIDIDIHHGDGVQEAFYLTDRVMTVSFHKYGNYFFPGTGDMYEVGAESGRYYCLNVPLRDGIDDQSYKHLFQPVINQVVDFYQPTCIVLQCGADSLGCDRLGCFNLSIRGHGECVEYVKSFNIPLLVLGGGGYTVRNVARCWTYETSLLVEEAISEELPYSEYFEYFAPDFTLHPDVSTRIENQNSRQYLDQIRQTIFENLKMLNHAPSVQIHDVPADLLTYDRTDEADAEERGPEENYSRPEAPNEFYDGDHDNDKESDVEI
Sequence of Histone deacetylase 3/NCoR1 (O75376 whole entry, further chain): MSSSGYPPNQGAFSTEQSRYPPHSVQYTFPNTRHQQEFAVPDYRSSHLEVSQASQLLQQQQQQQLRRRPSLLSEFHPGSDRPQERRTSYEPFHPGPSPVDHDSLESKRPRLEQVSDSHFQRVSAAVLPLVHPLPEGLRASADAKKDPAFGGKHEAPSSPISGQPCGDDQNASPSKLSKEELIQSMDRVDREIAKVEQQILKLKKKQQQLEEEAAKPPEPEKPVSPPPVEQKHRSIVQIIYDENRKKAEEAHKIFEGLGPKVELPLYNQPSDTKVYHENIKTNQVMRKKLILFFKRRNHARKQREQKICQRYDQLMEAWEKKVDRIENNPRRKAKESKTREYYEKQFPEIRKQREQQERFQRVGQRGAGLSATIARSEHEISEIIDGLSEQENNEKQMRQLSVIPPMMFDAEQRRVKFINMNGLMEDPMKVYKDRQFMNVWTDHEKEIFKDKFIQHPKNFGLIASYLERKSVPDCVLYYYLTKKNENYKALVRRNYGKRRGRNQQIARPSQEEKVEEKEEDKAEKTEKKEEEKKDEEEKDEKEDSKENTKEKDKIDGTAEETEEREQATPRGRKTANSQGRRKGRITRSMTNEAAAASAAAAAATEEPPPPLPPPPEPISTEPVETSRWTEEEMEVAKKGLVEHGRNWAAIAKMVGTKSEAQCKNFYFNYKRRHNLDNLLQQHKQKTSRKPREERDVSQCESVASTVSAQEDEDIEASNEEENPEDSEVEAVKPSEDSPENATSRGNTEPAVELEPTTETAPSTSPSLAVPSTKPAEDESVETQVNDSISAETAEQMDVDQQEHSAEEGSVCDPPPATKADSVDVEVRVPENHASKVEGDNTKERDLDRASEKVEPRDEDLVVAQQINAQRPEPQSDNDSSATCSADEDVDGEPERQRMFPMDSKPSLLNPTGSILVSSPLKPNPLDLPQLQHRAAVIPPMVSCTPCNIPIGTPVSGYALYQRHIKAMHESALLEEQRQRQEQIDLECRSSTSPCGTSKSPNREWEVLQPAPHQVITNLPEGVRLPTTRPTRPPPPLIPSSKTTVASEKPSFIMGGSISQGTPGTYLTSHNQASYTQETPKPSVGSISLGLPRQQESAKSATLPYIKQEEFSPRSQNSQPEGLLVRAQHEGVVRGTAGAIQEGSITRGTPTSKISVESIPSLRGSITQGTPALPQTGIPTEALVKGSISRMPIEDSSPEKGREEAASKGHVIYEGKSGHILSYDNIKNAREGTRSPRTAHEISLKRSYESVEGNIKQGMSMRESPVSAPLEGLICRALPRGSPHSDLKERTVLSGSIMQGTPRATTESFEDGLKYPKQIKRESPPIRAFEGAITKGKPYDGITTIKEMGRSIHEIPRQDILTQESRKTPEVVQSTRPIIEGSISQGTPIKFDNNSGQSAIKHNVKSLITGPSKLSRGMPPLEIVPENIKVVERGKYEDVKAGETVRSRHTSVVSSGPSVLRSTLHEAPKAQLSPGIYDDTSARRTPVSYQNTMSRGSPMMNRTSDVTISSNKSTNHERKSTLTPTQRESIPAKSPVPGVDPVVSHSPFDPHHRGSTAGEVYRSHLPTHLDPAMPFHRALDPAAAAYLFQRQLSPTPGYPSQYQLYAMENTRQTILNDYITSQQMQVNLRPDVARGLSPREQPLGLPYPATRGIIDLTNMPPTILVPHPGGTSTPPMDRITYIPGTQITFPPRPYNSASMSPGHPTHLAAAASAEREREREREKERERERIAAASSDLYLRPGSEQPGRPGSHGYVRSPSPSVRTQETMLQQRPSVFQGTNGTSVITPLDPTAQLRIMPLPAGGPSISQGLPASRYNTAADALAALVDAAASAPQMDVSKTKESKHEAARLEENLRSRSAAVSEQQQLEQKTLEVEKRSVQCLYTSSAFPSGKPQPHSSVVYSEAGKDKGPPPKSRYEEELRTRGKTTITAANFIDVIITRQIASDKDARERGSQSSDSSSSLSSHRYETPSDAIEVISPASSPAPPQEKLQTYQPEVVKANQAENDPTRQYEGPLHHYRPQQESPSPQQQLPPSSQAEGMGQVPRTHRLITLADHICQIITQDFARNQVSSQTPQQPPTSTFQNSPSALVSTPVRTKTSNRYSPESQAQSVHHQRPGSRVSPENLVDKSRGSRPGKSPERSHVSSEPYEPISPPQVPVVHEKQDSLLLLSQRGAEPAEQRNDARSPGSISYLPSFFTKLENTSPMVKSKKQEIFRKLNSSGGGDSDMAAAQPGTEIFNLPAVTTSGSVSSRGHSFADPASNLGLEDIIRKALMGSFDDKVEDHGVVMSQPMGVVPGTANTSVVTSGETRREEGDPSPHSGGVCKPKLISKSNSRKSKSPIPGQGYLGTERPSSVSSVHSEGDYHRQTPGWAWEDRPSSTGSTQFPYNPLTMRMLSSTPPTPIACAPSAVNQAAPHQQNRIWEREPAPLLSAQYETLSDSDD

A word on the IC50: it is the concentration at which inhibition is half-maximal. As for `Nc1cc(-c2ccccc2)ccc1NC(=O)c1ccc(CNc2nccc(-c3cccnc3)n2)cc1`, the IC50 was 16700 nM on Histone deacetylase 2, over 20000 nM in test [1], over 20000 nM in [2] and over 20000 nM at Histone deacetylase 8.

Turning to `CC(=O)N1C(NCc2ccc(C(=O)Nc3ccccc3N)cc2)=NC(=O)C1Cc1c[nH]c2ccccc12` (racemic), the IC50 was 116 nM at Histone deacetylase 2, over 20000 nM in test [1], 70 nM in [2] and 24300 nM on Histone deacetylase 8.

As to `COc1ccc(NC(=O)c2ccc(CNc3nccc(-c4cccnc4)n3)cc2)c(N)c1`, the IC50 on Histone deacetylase 2 is 248 nM; in test [1], over 20000 nM; in test [2] it was 111 nM; at Histone deacetylase 8, over 20000 nM.

Turning to `Nc1ccccc1NC(=O)c1ccc(CSC2=N[C@@H](Cc3c[nH]c4ccccc34)CS2)cc1`, the IC50 was 920 nM on Histone deacetylase 2; over 20000 nM in test [1]; 2800 nM in the test with DU-145; 3640 nM in the test on HCT-116; 890 nM in test [2]; 9910 nM with MCF7. Further, the IC50 is 9530 nM in the test with A549 and over 20000 nM on Histone deacetylase 8.

`Nc1ccccc1NC(=O)c1ccc(CSC2=N[C@@H](c3ccccc3)CS2)cc1`: the IC50 is 440 nM on Histone deacetylase 2, over 20000 nM in [1], 63 nM in [2] and 5160 nM on Histone deacetylase 8.

For `Nc1cc2ccccc2cc1NC(=O)c1ccc(CNc2nccc(-c3cccnc3)n2)cc1`, the IC50 at Histone deacetylase 2 is over 20000 nM; in [1], over 20000 nM; in [2] it was 630 nM; on Histone deacetylase 8, over 20000 nM.

Turning to `Nc1ccccc1NC(=O)c1ccc(CN=C2N[C@H](Cc3ccccc3)CS2)cc1`, the 50% inhibitory concentration (IC50) at Histone deacetylase 2 is 82 nM; in test [1] it was over 20000 nM; in [2], 36 nM; at Histone deacetylase 1, 410 nM; at Histone deacetylase 8, 12700 nM.

Take `O=C(CCCCCCC(=O)Nc1ccccc1)NO` [VORINOSTAT]: the figures for the IC50 with MCF7 and in the test on A549 were 2290 nM and 2270 nM, respectively.

Consider `Nc1ccccc1NC(=O)c1ccc(CNC2=NC(=O)C(Cc3ccccc3)N2)cc1` (racemic), for which the IC50 at Histone deacetylase 2 is 66 nM; in test [1], over 20000 nM; in the test with DU-145 it was over 50000 nM; with HCT-116, 16600 nM; in [2] it was 30 nM; in the test on MCF7, over 50000 nM. In addition, the values for the IC50 with A549 and on Histone deacetylase 8 were over 50000 nM and 13000 nM, respectively.

As for `Nc1ccccc1NC(=O)c1ccc(CN=C2N[C@H](c3ccccc3)CS2)cc1`, the IC50 on Histone deacetylase 2 was 56 nM; in test [1], over 20000 nM; in test [2] it was 79 nM; at Histone deacetylase 1 it was 370 nM; at Histone deacetylase 8, 10700 nM.

Turning to `Nc1ccccc1NC(=O)c1ccc(CN=C2NC[C@H](c3ccccc3)S2)cc1`, the IC50 at Histone deacetylase 2 worked out at 81 nM; in [2], 12 nM; on Histone deacetylase 1 it was 550 nM; at Histone deacetylase 8, 2300 nM.

Consider `CC(=O)N1C(NCc2ccc(C(=O)Nc3ccccc3N)cc2)=NC(=O)C1Cc1ccccc1` (racemic), for which the IC50 on Histone deacetylase 2 is 260 nM; in test [1], over 20000 nM; in [2] it was 83 nM; at Histone deacetylase 8, 22700 nM.

For the compound `Nc1ccccc1NC(=O)c1ccc(CNC2=N[C@@H](Cc3ccccc3)CS2)cc1`, the IC50 was 104 nM on Histone deacetylase 2; over 20000 nM in test [1]; 5450 nM in the test with DU-145; 1950 nM in the test with HCT-116; 52 nM in test [2]; 3090 nM in the test with MCF7. The results for the IC50 at Histone deacetylase 1, with A549 and on Histone deacetylase 8 were 920 nM, 6370 nM and 34900 nM, respectively.

On to `Nc1cc(C(=O)O)ccc1NC(=O)c1ccc(CNc2nccc(-c3cccnc3)n2)cc1`, for which the IC50 (on Histone deacetylase 2; in test [1]; in test [2]; at Histone deacetylase 8) was over 20000 nM throughout.

On to `Nc1cc(CO)ccc1NC(=O)c1ccc(CNc2nccc(-c3cccnc3)n2)cc1`, for which the IC50 (on Histone deacetylase 2; in [1]; in test [2]; on Histone deacetylase 8) was over 20000 nM throughout.

With `Nc1cc(O)ccc1NC(=O)c1ccc(CNc2nccc(-c3cccnc3)n2)cc1`, the IC50 was 1430 nM at Histone deacetylase 2, over 20000 nM in [1], 719 nM in test [2] and over 20000 nM at Histone deacetylase 8.

Turning to `Nc1ccccc1NC(=O)c1ccc(CSC2=N[C@@H](Cc3ccccc3)CS2)cc1`, the IC50 at Histone deacetylase 2 is 580 nM; in test [1], over 20000 nM; in test [2] it was 509 nM; on Histone deacetylase 8, over 20000 nM.

With `Nc1cc(C(=O)OCc2ccccc2)ccc1NC(=O)c1ccc(CNc2nccc(-c3cccnc3)n2)cc1`, the IC50 (at Histone deacetylase 2; in test [1]; in [2]; at Histone deacetylase 8) was over 20000 nM throughout.

`Nc1cc(Br)ccc1NC(=O)c1ccc(CNc2nccc(-c3cccnc3)n2)cc1`: the IC50 on Histone deacetylase 2 is over 20000 nM; in [1], over 20000 nM; in test [2] it was 4720 nM; at Histone deacetylase 8, over 20000 nM.

On to `Nc1ccccc1NC(=O)c1ccc(CNC2=NC(=O)C(Cc3c[nH]c4ccccc34)N2)cc1` (racemic), for which the IC50 on Histone deacetylase 2 is 78 nM; in test [1] it was over 20000 nM; in test [2], 104 nM; at Histone deacetylase 1, 190 nM; at Histone deacetylase 8, over 20000 nM.

On to `Nc1ccccc1NC(=O)c1ccc(CNC2=N[C@H](c3ccccc3)[C@@H](c3ccccc3)S2)cc1`, for which the IC50 on Histone deacetylase 2 was found to be 425 nM; in [2] it was 287 nM; at Histone deacetylase 8, 14900 nM.

For the compound `CC(C)(C)OC(=O)N1C(NCc2ccc(C(=O)Nc3ccccc3N)cc2)=NC(=O)C1Cc1c[nH]c2ccccc12` (racemic), the IC50 is 48 nM at Histone deacetylase 2; over 20000 nM in [1]; 40 nM in [2]; 500 nM on Histone deacetylase 1; 27200 nM on Histone deacetylase 8.

Consider `Nc1ccccc1NC(=O)c1ccc(CNC2=NC[C@@H](c3ccccc3)S2)cc1`, for which the IC50 was found to be 111 nM on Histone deacetylase 2, 23 nM in [2] and 1400 nM at Histone deacetylase 8.

`CC(C)(C)[Si](C)(C)OCc1ccc(NC(=O)c2ccc(CNc3nccc(-c4cccnc4)n3)cc2)c(N)c1`: the IC50 (on Histone deacetylase 2; in [1]; in test [2]; at Histone deacetylase 8) was over 20000 nM in each case.

Regarding `Nc1ccccc1NC(=O)c1ccc(CN=C2N[C@@H](c3ccccc3)[C@H](c3ccccc3)S2)cc1`, the results for the IC50 (on Histone deacetylase 2; in [2]; on Histone deacetylase 8) were 538 nM, 388 nM and 12600 nM, respectively.

Regarding `Nc1ccccc1NC(=O)c1ccc(CNC2=N[C@@H](c3ccc(O)cc3)CS2)cc1`, the IC50 was 44 nM on Histone deacetylase 2, 16 nM in test [2], 180 nM at Histone deacetylase 1 and 15000 nM on Histone deacetylase 8.
